{"source": "the NIST ThermoML archive (doi:10.1021/je050070r)", "details": "Liquid", "note": "Numbers after ± are expanded uncertainties.", "data": [{"smiles": "O=C(O)C(F)(F)C(F)(F)C(F)(F)C(F)(F)C(F)(F)C(F)(F)C(F)(F)C(F)(F)C(F)(F)C(F)(F)C(F)(F)F", "note": "[dodecanoic acid, tricosafluoro-]", "values": [{"measurement": "vapor or sublimation pressure", "setting": "400.73 K", "result": "0.856 ± 0.12", "unit": "kPa"}, {"measurement": "vapor or sublimation pressure", "setting": "413.72 K", "result": "1.819 ± 0.17", "unit": "kPa"}, {"measurement": "vapor or sublimation pressure", "setting": "422.1 K", "result": "2.854 ± 0.2", "unit": "kPa"}, {"measurement": "vapor or sublimation pressure", "setting": "422.75 K", "result": "2.985 ± 0.2", "unit": "kPa"}, {"measurement": "vapor or sublimation pressure", "setting": "433.27 K", "result": "4.848 ± 0.24", "unit": "kPa"}, {"measurement": "vapor or sublimation pressure", "setting": "445.63 K", "result": "8.29 ± 0.33", "unit": "kPa"}, {"measurement": "vapor or sublimation pressure", "setting": "457.94 K", "result": "13.81 ± 0.47", "unit": "kPa"}, {"measurement": "vapor or sublimation pressure", "setting": "470.59 K", "result": "22.07 ± 0.67", "unit": "kPa"}, {"measurement": "vapor or sublimation pressure", "setting": "483.66 K", "result": "34.48 ± 0.98", "unit": "kPa"}, {"measurement": "vapor or sublimation pressure", "setting": "498.85 K", "result": "55.15 ± 1.5", "unit": "kPa"}, {"measurement": "vapor or sublimation pressure", "setting": "520.51 K", "result": "99.96 ± 2.6", "unit": "kPa"}]}, {"smiles": "O=C(O)C(F)(F)C(F)(F)C(F)(F)C(F)(F)C(F)(F)C(F)(F)C(F)(F)C(F)(F)C(F)(F)F", "note": "[nonadecafluorodecanoic acid]", "values": [{"measurement": "vapor or sublimation pressure", "setting": "402.71 K", "result": "3.129 ± 0.2", "unit": "kPa"}, {"measurement": "vapor or sublimation pressure", "setting": "406.24 K", "result": "3.749 ± 0.22", "unit": "kPa"}, {"measurement": "vapor or sublimation pressure", "setting": "414.08 K", "result": "5.541 ± 0.26", "unit": "kPa"}, {"measurement": "vapor or sublimation pressure", "setting": "425.35 K", "result": "9.331 ± 0.35", "unit": "kPa"}, {"measurement": "vapor or sublimation pressure", "setting": "436.83 K", "result": "15.18 ± 0.5", "unit": "kPa"}, {"measurement": "vapor or sublimation pressure", "setting": "447.12 K", "result": "22.77 ± 0.69", "unit": "kPa"}, {"measurement": "vapor or sublimation pressure", "setting": "460.65 K", "result": "37.23 ± 1.1", "unit": "kPa"}, {"measurement": "vapor or sublimation pressure", "setting": "476.08 K", "result": "62.05 ± 1.7", "unit": "kPa"}, {"measurement": "vapor or sublimation pressure", "setting": "492.03 K", "result": "99.97 ± 2.6", "unit": "kPa"}]}, {"smiles": "O=C(O)C(F)(F)C(F)(F)C(F)(F)C(F)(F)C(F)(F)C(F)(F)C(F)(F)F", "note": "[pentadecafluorooctanoic acid]", "values": [{"measurement": "vapor or sublimation pressure", "setting": "332.4 K", "result": "0.128 ± 0.037", "unit": "kPa"}, {"measurement": "vapor or sublimation pressure", "setting": "335.52 K", "result": "0.168 ± 0.037", "unit": "kPa"}, {"measurement": "vapor or sublimation pressure", "setting": "339.75 K", "result": "0.231 ± 0.045", "unit": "kPa"}, {"measurement": "vapor or sublimation pressure", "setting": "345.75 K", "result": "0.361 ± 0.061", "unit": "kPa"}, {"measurement": "vapor or sublimation pressure", "setting": "352.15 K", "result": "0.581 ± 0.088", "unit": "kPa"}, {"measurement": "vapor or sublimation pressure", "setting": "359.75 K", "result": "0.96 ± 0.14", "unit": "kPa"}, {"measurement": "vapor or sublimation pressure", "setting": "368.05 K", "result": "1.602 ± 0.16", "unit": "kPa"}, {"measurement": "vapor or sublimation pressure", "setting": "377.09 K", "result": "2.69 ± 0.19", "unit": "kPa"}, {"measurement": "vapor or sublimation pressure", "setting": "387.15 K", "result": "4.591 ± 0.24", "unit": "kPa"}, {"measurement": "vapor or sublimation pressure", "setting": "397.55 K", "result": "7.691 ± 0.32", "unit": "kPa"}, {"measurement": "vapor or sublimation pressure", "setting": "409.26 K", "result": "13.07 ± 0.45", "unit": "kPa"}, {"measurement": "vapor or sublimation pressure", "setting": "421.75 K", "result": "22.16 ± 0.67", "unit": "kPa"}, {"measurement": "vapor or sublimation pressure", "setting": "435.35 K", "result": "37.25 ± 1.1", "unit": "kPa"}, {"measurement": "vapor or sublimation pressure", "setting": "450.95 K", "result": "63.98 ± 1.7", "unit": "kPa"}, {"measurement": "vapor or sublimation pressure", "setting": "463.95 K", "result": "96.5 ± 2.5", "unit": "kPa"}]}, {"smiles": "O=C(O)C(F)(F)C(F)(F)C(F)(F)C(F)(F)C(F)(F)C(F)(F)C(F)(F)C(F)(F)F", "note": "[perfluorononanoic acid]", "values": [{"measurement": "vapor or sublimation pressure", "setting": "372.78 K", "result": "1.12 ± 0.16", "unit": "kPa"}, {"measurement": "vapor or sublimation pressure", "setting": "382.69 K", "result": "2.02 ± 0.17", "unit": "kPa"}, {"measurement": "vapor or sublimation pressure", "setting": "390.81 K", "result": "3.12 ± 0.2", "unit": "kPa"}, {"measurement": "vapor or sublimation pressure", "setting": "401.7 K", "result": "5.54 ± 0.26", "unit": "kPa"}, {"measurement": "vapor or sublimation pressure", "setting": "412.92 K", "result": "9.33 ± 0.36", "unit": "kPa"}, {"measurement": "vapor or sublimation pressure", "setting": "423.86 K", "result": "15.19 ± 0.5", "unit": "kPa"}, {"measurement": "vapor or sublimation pressure", "setting": "432.85 K", "result": "22.77 ± 0.69", "unit": "kPa"}, {"measurement": "vapor or sublimation pressure", "setting": "446.11 K", "result": "37.25 ± 1.1", "unit": "kPa"}, {"measurement": "vapor or sublimation pressure", "setting": "461.08 K", "result": "62.07 ± 1.7", "unit": "kPa"}, {"measurement": "vapor or sublimation pressure", "setting": "476.13 K", "result": "99.97 ± 2.6", "unit": "kPa"}, {"measurement": "vapor or sublimation pressure", "setting": "476.27 K", "result": "99.97 ± 2.6", "unit": "kPa"}]}, {"smiles": "O=C(O)C(F)(F)C(F)(F)C(F)(F)C(F)(F)C(F)(F)C(F)(F)C(F)(F)C(F)(F)C(F)(F)C(F)(F)F", "note": "[perfluoroundecanoic acid]", "values": [{"measurement": "vapor or sublimation pressure", "setting": "385.19 K", "result": "0.616 ± 0.092", "unit": "kPa"}, {"measurement": "vapor or sublimation pressure", "setting": "393.78 K", "result": "1.062 ± 0.15", "unit": "kPa"}, {"measurement": "vapor or sublimation pressure", "setting": "402.69 K", "result": "1.752 ± 0.17", "unit": "kPa"}, {"measurement": "vapor or sublimation pressure", "setting": "412.29 K", "result": "2.785 ± 0.19", "unit": "kPa"}, {"measurement": "vapor or sublimation pressure", "setting": "412.41 K", "result": "2.789 ± 0.19", "unit": "kPa"}, {"measurement": "vapor or sublimation pressure", "setting": "422.37 K", "result": "4.513 ± 0.24", "unit": "kPa"}, {"measurement": "vapor or sublimation pressure", "setting": "431.47 K", "result": "6.925 ± 0.3", "unit": "kPa"}, {"measurement": "vapor or sublimation pressure", "setting": "445.17 K", "result": "12.44 ± 0.43", "unit": "kPa"}, {"measurement": "vapor or sublimation pressure", "setting": "459.92 K", "result": "20.7 ± 0.64", "unit": "kPa"}, {"measurement": "vapor or sublimation pressure", "setting": "473.83 K", "result": "34.49 ± 0.98", "unit": "kPa"}, {"measurement": "vapor or sublimation pressure", "setting": "475.24 K", "result": "34.48 ± 0.98", "unit": "kPa"}, {"measurement": "vapor or sublimation pressure", "setting": "491.44 K", "result": "58.6 ± 1.6", "unit": "kPa"}, {"measurement": "vapor or sublimation pressure", "setting": "491.79 K", "result": "58.6 ± 1.6", "unit": "kPa"}, {"measurement": "vapor or sublimation pressure", "setting": "509.83 K", "result": "96.51 ± 2.5", "unit": "kPa"}, {"measurement": "vapor or sublimation pressure", "setting": "510.8 K", "result": "99.97 ± 2.6", "unit": "kPa"}]}]}
